Laboratory results taken from patent US20160051706A1, “PROCESS FOR PRODUCING A COMPLEX OF A LANTHANIDE WITH A MACROCYCLIC LIGAND” (AGFA HEALTHCARE, priority 2013, published 2016).
Values joined by “and” are separate entries in the source; they are usually repeats but may differ in a detail not shown here. Identical values can stand only once.

What was measured:
[1] = LD50 better than for free DOTA; cited from earlier work
[2] = Moisture content of DOTA (Karl Fischer) over time at controlled relative humidity; type: physicochemical; conditions: Temp. 20 ± 2° C.
Description: The measurement of the moisture content in DOTA is performed as described in the semi-micro method of Karl Fischer (Fischer, Karl-Pharm. Eur. Section 2.5.12). This section and the next section illustrates how the moisture content in a batch of a macrocyclic ligand changed when the product was exposed to different conditions of relative humidity. The moisture content in the samples was measured using methods known to those skilled in the art. In this example, the measurement of the content of moisture in DOTA was performed as described above. Two samples of DOTA were kept in conditions of relative humidity (RH)=30+5% at a temperature of Temp=20+2° C. From these samples, small samples were taken at different times (T0=beginning of the experiment; T30=T0+30 min; T90=T0+90 min; and […]=T0+300 min) and the moisture content was measured as described above. Each experiment (Exp.) was performed twice and the average of each (Ind.) was determined (Avg.). This measurement, as the previous one, illustrated how the moisture content in a batch of a macrocyclic ligand was affected by the environmental relative humidity conditions. Therefore, the previous experiments were repeated in the same conditions but at a RH=75+5%. Again, each experiment (Exp.) was performed twice and the average of each (Ind.) was determined (Avg.).

In the case of `O=C([O-])CN1CCN(CC(=O)[O-])CCN(CC(=O)[O-])CCN(CC(=O)[O-])CC1.[Ca+2].[Na+].[Na+]` [Na2 [Ca-DOTA]], the “LD50 of Na2 [Ca-DOTA] relative to free DOTA” value [1] is listed as “at least 40 times”.
For `O=C(O)CN1CCN(CC(=O)O)CCN(CC(=O)O)CCN(CC(=O)O)CC1` [DOTA, 1,4,7,10-tetraazacyclododecane-1,4,7,10-tetraacetic acid], the “Moisture content DOTA, Avg.” value ([2]; T0, RH 30 ± 5%) was 4.929 wt. % and 5.25 wt. %, the “Moisture content DOTA, Ind.” value ([2]; T0, RH 30 ± 5%) was 5.150 wt. % and 4.941 wt. % and 4.929 wt. % and 5.346 wt. % and the “Moisture content DOTA, Avg.” value ([2]; T0, RH 75 ± 5%) was 4.94 wt. % and 5.25 wt. %. For the same compound, the “Moisture content DOTA, Ind.” value ([2]; T0, RH 75 ± 5%) was 5.150 wt. % and 4.941 wt. % and 4.929 wt. % and 5.346 wt. %, the “Moisture content DOTA, Avg.” value ([2]; T30 (T0+30 min), RH 30 ± 5%) was 4.98 wt. % and 6.20 wt. % and the “Moisture content DOTA, Ind.” value ([2]; T30 (T0+30 min), RH 30 ± 5%) was 6.247 wt. % and 4.944 wt. % and 5.020 wt. % and 6.154 wt. %. For the same compound, the “Moisture content DOTA, Avg.” value ([2]; T30 (T0+30 min), RH 75 ± 5%) was 6.71 wt. % and 6.65 wt. %, the “Moisture content DOTA, Ind.” value ([2]; T30 (T0+30 min), RH 75 ± 5%) was 6.851 wt. % and 6.734 wt. % and 6.694 wt. % and 6.449 wt. % and the “Moisture content DOTA, Avg.” value ([2]; T90 (T0+90 min), RH 30 ± 5%) was 5.00 wt. % and 6.12 wt. %. For the same compound, the “Moisture content DOTA, Ind.” value ([2]; T90 (T0+90 min), RH 30 ± 5%) was 6.170 wt. % and 5.038 wt. % and 4.954 wt. % and 6.062 wt. %, the “Moisture content DOTA, Avg.” value ([2]; T90 (T0+90 min), RH 75 ± 5%) was 7.34 wt. % and 6.88 wt. % and the “Moisture content DOTA, Ind.” value ([2]; T90 (T0+90 min), RH 75 ± 5%) was 6.789 wt. % and 7.475 wt. % and 7.200 wt. % and 6.962 wt. %. For the same compound, the “Moisture content DOTA, Avg.” value ([2]; T300 (T0+300 min), RH 30 ± 5%) was 5.15 wt. % and 6.19 wt. %, the “Moisture content DOTA, Ind.” value ([2]; T300 (T0+300 min), RH 30 ± 5%) was 6.268 wt. % and 5.178 wt. % and 5.114 wt. % and 6.106 wt. % and the “Moisture content DOTA, Avg.” value ([2]; T300 (T0+300 min), RH 75 ± 5%) was 5.86 wt. % and 4.36 wt. %. The “Moisture content DOTA, Ind.” value ([2]; T300 (T0+300 min), RH 75 ± 5%) was 4.609 wt. % and 5.914 wt. % and 5.813 wt. % and 4.111 wt. %.
